Test results from patent US20210255193A1, “LYSINE REACTIVE PROBES AND USES THEREOF” (The Scripps Research Institute, priority 2017, published 2021).

What was measured:
Test in all cases: competitive isoTOP-ABPP
Format in all cases: binding
[1] = biological target: T1, LDHB L-lactate dehydrogenase B chain (Homo sapiens, UniProt P07195); conditions: 50 uM, in vitro; for R value (DMSO/fragment) for probe 1 labeling / isoTOP-ABPP reactivity ratio at lysine P07195_K82 / isoTOP-ABPP reactivity ratio at lysine P07195_K244: 231 sol
T1 construct: isoTOP-ABPP experiments performed in cell lysates (in vitro); endogenous in cells; host or cells: MDA-MB-231 soluble lysate
T1 sequence (P07195 whole entry, the tested form may be a part): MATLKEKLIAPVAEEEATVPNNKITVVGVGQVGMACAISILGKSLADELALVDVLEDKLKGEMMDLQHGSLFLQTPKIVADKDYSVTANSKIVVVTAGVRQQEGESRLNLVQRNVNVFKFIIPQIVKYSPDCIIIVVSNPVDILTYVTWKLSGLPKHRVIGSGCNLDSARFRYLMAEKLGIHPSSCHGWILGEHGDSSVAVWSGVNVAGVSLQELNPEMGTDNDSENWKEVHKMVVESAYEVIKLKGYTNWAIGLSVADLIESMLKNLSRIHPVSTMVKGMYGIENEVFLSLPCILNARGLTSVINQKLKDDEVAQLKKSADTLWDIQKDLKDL
Procedure, shortened: (§1)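 Probe: STP-alkyne, 0.1 mM, 1 h RT, after fragment pretreatment of lysate (esters 50 μM; guanidinylators 100 μM). Tags: light = compound, heavy = DMSO, via CuAAC. Replicates averaged if SD <60% of mean; otherwise lowest ratio used when any R <4.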

[2] = biological target: T2, SLC25A5 ADP/ATP translocase 2 (Homo sapiens, UniProt P05141); conditions: 50 uM, in vitro
T2 construct: isoTOP-ABPP experiments performed in cell lysates (in vitro); endogenous in cells; host or cells: MDA-MB-231 soluble lysate
T2 sequence (P05141 1-298): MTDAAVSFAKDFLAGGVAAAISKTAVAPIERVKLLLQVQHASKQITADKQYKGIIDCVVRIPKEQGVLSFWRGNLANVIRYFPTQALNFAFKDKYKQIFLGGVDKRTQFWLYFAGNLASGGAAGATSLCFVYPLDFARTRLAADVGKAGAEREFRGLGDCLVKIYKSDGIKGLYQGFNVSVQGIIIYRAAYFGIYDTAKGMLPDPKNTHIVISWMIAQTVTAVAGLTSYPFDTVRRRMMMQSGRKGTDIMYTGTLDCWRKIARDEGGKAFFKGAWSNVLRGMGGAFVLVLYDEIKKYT
Procedure, shortened: as §1

FAM136A Protein FAM136A = biological target: T3, FAM136A Protein FAM136A (Homo sapiens, UniProt Q96C01); conditions: 50 uM, in vitro
T3 construct: isoTOP-ABPP experiments performed in cell lysates (in vitro); endogenous in cells; host or cells: soluble proteome of human cancer cell lines (MDA-MB-231; Ramos and Jurkat also prepared)
T3 sequence (Q96C01 whole entry): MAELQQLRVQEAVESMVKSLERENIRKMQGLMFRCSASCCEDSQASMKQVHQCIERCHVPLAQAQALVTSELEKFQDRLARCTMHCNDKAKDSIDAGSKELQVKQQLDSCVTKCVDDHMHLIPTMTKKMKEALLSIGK
Procedure, shortened: as §1

DTYMK Thymidylate kinase = biological target: T4, DTYMK Thymidylate kinase (Homo sapiens, UniProt P23919); conditions: 50 uM, 231 sol, in vitro
T4 construct: isoTOP-ABPP experiments performed in cell lysates (in vitro); endogenous in cells; host or cells: soluble proteome of human cancer cell lines (MDA-MB-231; Ramos and Jurkat also prepared)
T4 sequence (P23919 1-212): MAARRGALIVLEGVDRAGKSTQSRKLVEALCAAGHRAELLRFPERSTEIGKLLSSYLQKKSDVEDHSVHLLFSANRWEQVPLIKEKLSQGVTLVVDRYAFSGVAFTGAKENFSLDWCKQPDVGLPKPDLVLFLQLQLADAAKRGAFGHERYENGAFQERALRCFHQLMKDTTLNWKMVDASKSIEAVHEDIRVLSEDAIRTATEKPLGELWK
Procedure, shortened: as §1

[3] = biological target: T5, ETFA Electron transfer flavoprotein subunit alpha, mitochondrial (Homo sapiens, UniProt P13804); conditions: 50 uM, 231 sol, in vitro; for R value (DMSO/fragment) for probe 1 labeling: P13804_K139
T5 construct: isoTOP-ABPP experiments performed in cell lysates (in vitro); endogenous in cells; host or cells: soluble proteome of human cancer cell lines (MDA-MB-231; Ramos and Jurkat also prepared)
T5 sequence (P13804 20-333): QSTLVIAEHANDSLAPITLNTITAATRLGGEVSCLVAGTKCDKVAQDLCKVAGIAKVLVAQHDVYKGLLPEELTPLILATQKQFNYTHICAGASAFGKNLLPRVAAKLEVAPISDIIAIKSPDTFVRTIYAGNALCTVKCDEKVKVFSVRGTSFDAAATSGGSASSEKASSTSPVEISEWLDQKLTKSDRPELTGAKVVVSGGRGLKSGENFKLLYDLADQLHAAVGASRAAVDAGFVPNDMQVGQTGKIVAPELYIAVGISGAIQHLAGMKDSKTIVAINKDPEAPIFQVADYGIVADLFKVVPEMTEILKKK
T5 sequence (P38117 2-255 partner limits assumed): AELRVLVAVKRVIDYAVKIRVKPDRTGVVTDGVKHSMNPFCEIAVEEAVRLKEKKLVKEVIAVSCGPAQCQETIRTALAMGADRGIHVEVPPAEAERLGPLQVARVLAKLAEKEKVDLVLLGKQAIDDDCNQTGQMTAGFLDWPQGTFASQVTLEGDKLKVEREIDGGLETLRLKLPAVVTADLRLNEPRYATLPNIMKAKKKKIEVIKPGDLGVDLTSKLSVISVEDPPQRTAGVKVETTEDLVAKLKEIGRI
Procedure, shortened: as §1

SMILES	isoTOP-ABPP reactivity ratio at lysine P13804_K139 [3]	isoTOP-ABPP reactivity ratio at lysine P23919_K118 (DTYMK Thymidylate kinase)	isoTOP-ABPP reactivity ratio at lysine Q96C01_K99 (FAM136A Protein FAM136A; 231 sol)	isoTOP-ABPP reactivity ratio at lysine P05141_K23 ([2]; 231 sol)	other results
O=C(Oc1c(F)c(F)c(F)c(F)c1F)c1cc(C(F)(F)F)cc(C(F)(F)F)c1 [fragment 21, Pentafluorophenyl 3,5-bis(trifluoromethyl)benzoate]					R value (DMSO/fragment) for probe 1 labeling ([1]; P07195_K244): 1.0; R value (DMSO/fragment) for probe 1 labeling ([2]; P05141_K23, 231 sol): 1.7; R value (DMSO/fragment) for probe 1 labeling (FAM136A Protein FAM136A; Q96C01_K99, 231 sol): 1.1; R value (DMSO/fragment) for probe 1 labeling (DTYMK Thymidylate kinase; P23919_K118): 0.8
Cn1cc(CC(=O)Oc2c(F)c(F)c(F)c(F)c2F)c2ccccc21 [fragment 22, Pentafluorophenyl 2-(1-methyl-1H-indol-3-yl)acetate]					R value (DMSO/fragment) for probe 1 labeling [3]: 0.9; R value (DMSO/fragment) for probe 1 labeling ([1]; P07195_K82): 0.8; R value (DMSO/fragment) for probe 1 labeling ([1]; P07195_K244): 1.0
COc1cc(CCC(=O)Oc2c(F)c(F)c(F)c(F)c2F)cc(OC)c1OC [fragment 23, Pentafluorophenyl 3-(3,4,5-trimethoxyphenyl)propanoate]					R value (DMSO/fragment) for probe 1 labeling [3]: 1.4
O=C(Oc1c(F)c(F)c(F)c(F)c1F)C1CCN(C(=O)OCc2ccccc2)CC1 [fragment 24, 1-Benzyl 4-(pentafluorophenyl) piperidine-1,4-dicarboxylate]	1.1	1.1			
O=C(Oc1c(F)c(F)c(F)c(F)c1F)c1ccc2ccccc2n1 [fragment 25, Pentafluorophenyl quinoline-2-carboxylate]		1.1			
O=C(CCc1coc2cc(F)ccc2c1=O)Oc1c(F)c(F)c(F)c(F)c1F [fragment 26, Pentafluorophenyl 3-(7-fluoro-4-oxo-4H-chromen-3-yl)propanoate]			0.9		isoTOP-ABPP reactivity ratio at lysine P07195_K82 [1]: 0.7
CCn1cc(C(=O)Oc2c(F)c(F)c(F)c(F)c2F)c(=O)c2ccc(C)nc21 [fragment 28, Pentafluorophenyl 1-ethyl-7-methyl-4-oxo-1,4-dihydro-1,8-naphthyridine-3-carboxylate]		0.9		1.0	
O=C(Oc1ccc([N+](=O)[O-])cc1[N+](=O)[O-])C(c1ccccc1)c1ccccc1 [fragment 30, 2,4-Dinitrophenyl 2,2-diphenylacetate]	20.0		0.8	2.2	isoTOP-ABPP reactivity ratio at lysine P07195_K82 [1]: 20.0; isoTOP-ABPP reactivity ratio at lysine P07195_K244 [1]: 1.2
O=C(Oc1ccc([N+](=O)[O-])cc1[N+](=O)[O-])c1cc(C(F)(F)F)cc(C(F)(F)F)c1 [fragment 31, 2,4-Dinitrophenyl 3,5-bis(trifluoromethyl)benzoate]	0.8			1.5	
Cn1cc(CC(=O)Oc2ccc([N+](=O)[O-])cc2[N+](=O)[O-])c2ccccc21 [fragment 32, 2,4-Dinitrophenyl 2-(1-methyl-1H-indol-3-yl)acetate]	20.0		0.9	1.8	isoTOP-ABPP reactivity ratio at lysine P07195_K82 [1]: 0.8; isoTOP-ABPP reactivity ratio at lysine P07195_K244 [1]: 1.0
COc1cc(CCC(=O)Oc2ccc([N+](=O)[O-])cc2[N+](=O)[O-])cc(OC)c1OC [fragment 33, 2,4-Dinitrophenyl 3-(3,4,5-trimethoxyphenyl)propanoate]	0.7	6.6	0.7		
O=C(Oc1ccc([N+](=O)[O-])cc1[N+](=O)[O-])C1CCN(C(=O)OCc2ccccc2)CC1 [fragment 34, 1-Benzyl 4-(2,4-dinitrophenyl) piperidine-1,4-dicarboxylate]					isoTOP-ABPP ratio (R) at liganded lysine P07195_K244 ([1]; sol, 231): 1.0; isoTOP-ABPP ratio (R) at liganded lysine P05141_K23 ([2]; sol, 231): 1.1; isoTOP-ABPP ratio (R) at liganded lysine Q96C01_K99 (FAM136A Protein FAM136A; sol, 231): 1.2
